Columns and labels:
IL-8 expression = IL-8 expression in LPS-stimulated HUVECtert cells; type: cell-based; conditions: for IL-8 % Inhibition (30 µM) / inhibition at 30 µM / IC50: HUVECtert cells stimulated with LPS; for IL-8 % Inhibition (30 µM) / inhibition at 30 µM: means ± SD of 5 replicates, b: one sample pooled from the 5 replicates; for effect on IL-8 expression: pure compound, screening 30 µM
Description: (§1) To evaluate the pharmacological activity of the extracts, all extracts were assayed in three different cellular in vitro models that are relevant in the context of inflammation. […] In these cells, the potential impact of the extracts on cell viability was assessed (Figure 2C).
(§2) Assays were performed as previously described. Extracts were dissolved in dimethyl sulfoxide (DMSO) and further diluted in cell culture medium to obtain a final concentration of 50 µg/mL; DMSO at the respective final concentration (<0.1%) was used as vehicle control in each assay. OPLS-DA candidate compounds were also dissolved in DMSO to obtain a final screening concentration of 30 µM.
[…] Impact of test samples on cell viability was determined after 6 h of stimulation by XTT. […] After incubation for 2 h, absorbance was measured at 450 nm. Samples decreasing cell viability by more than 30% were considered to negatively influence cell viability.
(§3) To determine the IC50 values, pure compounds showing significant inhibitory activity at the screening concentration were tested at 5–10 concentrations, each with 4 replicates.

NO production = test: NO release from LPS/IFN-γ-stimulated RAW 264.7 macrophages (Griess); type: cell-based, mouse; conditions: for NO % Inhibition (30 µM) / inhibition at 30 µM: means ± SD of 3 experiments in duplicates; for effect on NO production: pure compound, screening 30 µM
Description: as §1, §2
After removing 50 µL of the supernatants to react with Griess reagent (Sigma Aldrich), cells were incubated with XTT reagent (XTT proliferation kit II, Sigma Aldrich). NO production (Griess reaction) and metabolic activity of the cells (XTT formazan product) were photometrically measured. Tests were performed in three independent experiments, each in duplicate.
as §3

NF-κB = test: NF-κB-driven luciferase reporter gene transactivation in TNF-α-stimulated HEK293/NF-κB-luc cells; type: cell-based; conditions: for NFκB % Inhibition (30 µM) / inhibition at 30 µM / IC50: HEK/NFκB-luc cells stimulated with TNF-α; for NFκB % Inhibition (30 µM) / inhibition at 30 µM: means ± SD of 4 replicates; for effect on NF-κB activation: pure compound, screening 30 µM; for inhibition at 30 µM / IC50: Homo sapiens, HEK293
Description: as §1, §2
Transactivation activity of a NF-κB-driven luciferase reporter gene was determined in TNF-α (2 ng/mL)-stimulated HEK293/NF-κB-luc cells (Panomics, RC0014), using 5 µM parthenolide (Sigma-Aldrich, St. Louis, MO, USA) as positive control. Differences in cell viability were detected by comparing the fluorescence of vehicle-treated cells and cells treated with sample solutions upon staining with CellTracker Green CMFDA (C2925; Invitrogen), a fluorescent probe that is retained inside living cells. Screening samples were tested in three independent experiments, each performed in quadruplicate.
as §3

HUVECtert cells = test: Cell viability of HUVECtert cells (XTT); type: cell-based; parameters: key: ^+ compound significantly impaired cell viability at concentration of 30 µM; conditions: 30 µM, decrease of viability by more than 30%
Description: Effects on IL-8 expression were tested in hTERT-immortalized HUVECtert cells stimulated with lipopolysaccharide (LPS, 100 ng/mL, Sigma-Aldrich), with BAY 11-7082 (5 µM) as positive control. Activity screening was performed in sextuplicate. Impact of test samples on cell viability was determined after 6 h of stimulation by XTT. Incubation medium was removed, and 40 µL serum-free medium, containing XTT (Thermo Fisher Scientific, final concentration 200 µg/mL) and phenazine methyl sulfate (TCI Europe N.V., final concentration: 25 µM) were added to each well. After incubation for 2 h, absorbance was measured at 450 nm. Samples decreasing cell viability by more than 30% were considered to negatively influence cell viability.

[1] = LPS/IFNγ-stimulated RAW macrophages
[2] = Mus musculus, Macrophage, LPS/IFNγ-stimulated RAW macrophages

| SMILES | effect on NF-κB activation (NF-κB) | inhibition at 30 µM (IL-8 expression; 30 µM) | inhibition at 30 µM (NO production; [2]) | inhibition at 30 µM (NF-κB; 30 µM) | IC50 (NF-κB) | further results |
| --- | --- | --- | --- | --- | --- | --- |
| C=C[C@H]1[C@H](O[C@@H]2O[C@H](CO)[C@@H](O)[C@H](O)[C@H]2O)OC=C(C(=O)OC)[C@H]1CC(=O)O [Compound 4, Secoxyloganin, reference compound] |  |  |  |  |  | IL-8 % Inhibition (30 µM) (IL-8 expression; 30 µM): −0.96 ± 6.01%; NO % Inhibition (30 µM) (NO production; [1]): 5.85 ± 4.58%; NFκB % Inhibition (30 µM) (NF-κB; 30 µM): −17.25 ± 9.25% |
| O=c1cc(-c2ccc(O)c(O)c2)oc2cc(O[C@@H]3O[C@H](CO)[C@@H](O)[C@H](O)[C@H]3O)cc(O)c12 [Compound 7, luteolin-7-O-glucoside, reference compound] | no activity |  |  |  |  | IL-8 % Inhibition (30 µM) (IL-8 expression; 30 µM): 7.42 ± 2.04%; effect on IL-8 expression (IL-8 expression): no activity; NO % Inhibition (30 µM) (NO production; [1]): 4.68 ± 9.82%; effect on NO production (NO production): no activity; NFκB % Inhibition (30 µM) (NF-κB; 30 µM): 0.68 ± 4.29% |
| O=c1cc(-c2ccc(O)c(O)c2)oc2cc(O)cc(O)c12 [Compound 18, luteolin, reference compound] |  | 74.8 ± 2.15% | 56.4 ± 12.7% | 95.83 ± 0.01% | 6.84 µM | IC50 (NO production; [2]): 31.8 µM |
| O=c1cc(-c2ccc(O)cc2)oc2cc(O)cc(O)c12 [Compound 21, apigenin] |  | 64.8 ± 3.03% | 24.3 ± 10.8% |  |  | IC50 (IL-8 expression): 18.9 µM |
| COc1cc(-c2cc(=O)c3c(OC)cc(O)cc3o2)cc(OC)c1OC [Compound 22, 7-hydroxy-5-methoxy-2-(3,4,5-trimethoxyphenyl)-chromen-4-one] |  | 13.2 ± 2.49% | 8.22 ± 11.9% | 51.1 ± 2.86% |  | effect on NF-κB activation (NF-κB; listed as 7-hydroxy-5,3′,4′,5′-tetramethoxyflavone): weak inhibition |
| O=c1cc(-c2ccc(O)cc2)oc2c(-c3c(O)cc(O)c4c(=O)cc(-c5ccc(O)cc5)oc34)c(O)cc(O)c12 [Compound 26, 5,7,5′,7,-Tetrahydroxy-2,2′-bis-(4-hydroxy-phenyl)-[8,8′]bichromenyl-4,4′-dione] |  | -2.05 ± 3.02% | 9.61 ± 11.4% | 3.42 ± 3.15% |  |  |
| COc1cc(-c2cc(=O)c3c(O)cc(O)c(-c4c(O)cc(O)c5c(=O)cc(-c6ccc(O)cc6)oc45)c3o2)ccc1O [Compound 27, 5,7,5′,7,-Tetrahydroxy-2-(4-hydroxy3-methoxy-phenyl)-2′-(4-hydroxy-phenyl)-[8,8′]bichromenyl-4,4′-dione] | moderately inhibited | 3.5 ± 4.58% | 1.45 ± 7.78% | 78.1 ± 8.86% | 19.6 µM |  |
| COc1cc(-c2cc(=O)c3c(O)cc(O)c(-c4c(O)cc(O)c5c(=O)cc(-c6ccc(O)c(OC)c6)oc45)c3o2)ccc1O [Compound 29, 5,7,5′,7,-Tetrahydroxy-2,2′-bis-(4-hydroxy-3-methoxy-phenyl)-[8,8′]bichromenyl-4,4′-dione] |  | 2.97 ± 9.92% | -0.85 ± 3.84% | 31.2 ± 15.5% |  | NF-κB Activity (NF-κB; class from Table 5 data, 30 µM): (a) |
| O=c1cc(-c2ccc(O)c(-c3c(O)cc(O)c4c(=O)cc(-c5ccc(O)cc5)oc34)c2)oc2cc(O)cc(O)c12 [Compound 32, amentoflavone, reference compound] | potently inhibited | 9.35 ± 2.78% | 7.06 ± 10.6% | 90.8 ± 3.43% | 6.45 µM |  |
| COc1ccc(-c2cc(=O)c3c(O)cc(O)c(-c4cc(-c5cc(=O)c6c(O)cc(O)cc6o5)ccc4O)c3o2)cc1 [Compound 33, podocarpusflavone A, reference compound] | potently inhibited | 40.2 ± 29.8% | 3.42 ± 3.94% | 99.2 ± 1.25% | 3.44 µM | IC50 (IL-8 expression): 47.9 µM; effect on IL-8 expression (IL-8 expression): moderately inhibited |
| C=Cc1c(C)c2cc3nc(c4c5[nH]c(cc6nc(cc1[nH]2)C(C)=C6CC)c(C)c5C(=O)[C@@H]4C(=O)OC)[C@@H](CCC(=O)O)[C@@H]3C [Compound 52, pheophorbide A, reference compound] | pronounced inhibition | 95.8% | 5.48 ± 7.55% | 74.7 ± 13.6% | 3.04 µM | IL-8 Activity (IL-8 expression; class from Table 5 data, 30 µM): a/ct; effect on IL-8 expression (IL-8 expression): inhibited IL-8 production; impaired cell viability (flag, IL-8 assay) (HUVECtert cells): +; effect on NO production (NO production): did not inhibit |

Source: PMC9027581, “Characterization of Constituents with Potential Anti-Inflammatory Activity in Chinese Lonicera Species by UHPLC-HRMS Based Metabolite Profiling” (Metabolites, 2022)
